According to patent US10576082B2, “ErbB2 regulates autophagic flux to modulate the proteostasis of APP-CTFs in alzheimer's disease” (Academia Sinica, priority 2016, dated 2020):

Tested on: IMR32 neuroblastoma cells overexpressing C99-YFP
Assay: Western blotting of IMR32 cells overexpressing C99-YFP
Type: cell-based, human
Settings: compound 1 μM, 37° C., 24 h
Procedure: (A) IMR32 cells overexpressing C99-YFP were grown with 2 ml fresh culture medium in 6-well plates, and treated with 1 μM CL-387,785 or DAPT at 37° C. for 24 h. The cell extracts were analyzed by Western blotting. (B) Conditional media were harvested and processed for determination of secreted Aβ40 using a colorimetric Aβ40-specific ELISA kit. (C) C99-YFP-expressing IMR32 cells (160,000 cells/well) were seeded onto 6-well plates and cultured at 37° C. for 24 h, and infected with ErbB1- or ErbB2-targeting shRNA lentivirus for an additional 48 h. Infection mixtures were replaced with 2 ml fresh culture medium, and infected cells were then incubated at 37° C. for an additional 24 h. The cell extracts were analyzed by Western blotting with anti-GFP antibody. (D) The conditioned media were harvested and processed for determination of secreted Aβ40. Data are the mean±SD from three independent experiments, and were analyzed by Student's t-tests. * p<0.05. […]
Preparation of cell extracts. […] Following the removal of cell debris by centrifugation, clarified lysates were processed for immunoprecipitation, Western blotting, or quantification of BCA protein content.
Western blotting analysis. Protein concentration was measured with the BCA Protein Assay Kit (Pierce). […] Quantitative analyses of blot images were processed using Image J software (NIH) to determine the relative densities of immunoreactive bands.

Compound: CC#CC(=O)Nc1ccc2ncnc(Nc3cccc(Br)c3)c2c1 [CL-387,785, N-[4-[(3-bromophenyl)amino]-6-quinazolinyl]-2-butynamide]
- level of AICD: significantly reduced
- level of C99: significantly reduced
